PubChem BioAssay (NCI)
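Results reflect a 48-hour exposure of cells in 96-well plates to compound at five concentrations. TGI: concentration producing complete growth inhibition.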 *1 amine or outer side, *2 acyl side, *3 side chain or, on linkers, in order; H or OH if unused. Where a SMILES comes first, the peptide text is derived from it. [ ]: non-standard residue; d: D form. X33 = C=CCC(O[*:1])C(=O)[*:2]; NMeV = CN[CH](C(=O)O)C(C)C; NMeA = CN[CH](C)C(=O)O; βAla = NCCC(=O)O

Key:
Experiment in all cases: DTP human tumour cell line panel, 48 h
A549 NSCLC = tested on: A549 NSCLC
ACHN renal = tested on: ACHN renal
CCRF-CEM leukemia = tested on: CCRF-CEM leukemia
HCT-15 colon = tested on: HCT-15 colon
HL-60(TB) leukemia = tested on: HL-60(TB) leukemia
HT29 colon = tested on: HT29 colon
K-562 leukemia = tested on: K-562 leukemia
MDA-MB-435 = tested on: MDA-MB-435
SF-268 CNS = tested on: SF-268 CNS
SK-MEL-2 melanoma = tested on: SK-MEL-2 melanoma
SK-MEL-28 melanoma = tested on: SK-MEL-28 melanoma
SNB-75 CNS = tested on: SNB-75 CNS
SR leukemia = tested on: SR leukemia
U251 CNS = tested on: U251 CNS
UACC-257 melanoma = tested on: UACC-257 melanoma
UO-31 renal = tested on: UO-31 renal
RXF 393 renal = tested on: RXF 393 renal
SF-539 CNS = tested on: SF-539 CNS
SK-OV-3 ovarian = tested on: SK-OV-3 ovarian

| Compound | TGI (A549 NSCLC) [µM] | TGI (ACHN renal) [µM] | TGI (CCRF-CEM leukemia) [µM] | TGI (HCT-15 colon) [µM] | TGI (HL-60(TB) leukemia) [µM] | TGI (HT29 colon) [µM] | TGI (K-562 leukemia) [µM] | TGI (MDA-MB-435) [µM] | TGI (SF-268 CNS) [µM] | TGI (SK-MEL-2 melanoma) [µM] | TGI (SK-MEL-28 melanoma) [µM] | TGI (SNB-75 CNS) [µM] | TGI (SR leukemia) [µM] | TGI (U251 CNS) [µM] | TGI (UACC-257 melanoma) [µM] | TGI (UO-31 renal) [µM] | TGI (RXF 393 renal) [µM] | TGI (SF-539 CNS) [µM] | TGI (SK-OV-3 ovarian) [µM] |
| --- | --- | --- | --- | --- | --- | --- | --- | --- | --- | --- | --- | --- | --- | --- | --- | --- | --- | --- | --- |
| O=C(CNC(=O)OCc1ccccc1)NCCCCC(NC(=O)OCc1ccccc1)C(=O)NC(CCCCNC(=O)CNC(=O)OCc1ccccc1)C(=O)OCc1ccccc1 (centres undefined) | > 62.5 | > 62.5 | > 62.5 | > 62.5 | > 62.5 | > 62.5 | > 62.5 | > 62.5 | > 62.5 | > 62.5 | > 62.5 | > 62.5 | > 62.5 | > 62.5 | > 62.5 | > 62.5 |  |  |  |
| CCC(=O)N(O)C(C)(C)C | > 100 | > 100 | > 100 | > 100 | > 100 | > 100 | > 100 |  | > 100 |  | > 100 | > 100 | > 100 | > 100 | > 100 | > 100 | > 100 | > 100 | > 100 |
| COC(=O)C1CCC(=O)N1C(c1ccccc1)c1cc(OC)c(OC)c(OC)c1 (centres undefined) | > 100 | > 100 | > 100 | > 100 | 57.8 | > 100 | 49.9 | 59.7 | > 100 |  | > 100 |  | > 100 | > 100 | > 100 | > 100 | > 100 | > 100 | > 100 |
| O=C1C(=Nc2ccccc2)Oc2cc(O)ccc21 | > 100 | > 100 | > 100 | > 100 |  | > 100 | > 100 | > 100 | > 100 | > 100 | > 100 | > 100 | > 100 | > 100 | > 100 | > 100 | > 100 | > 100 | > 100 |
| CCOc1ncn(-c2ccc(NC(=S)NC34CC5CC(CC(C5)C3)C4)cc2)n1 | > 100 |  | > 100 | > 100 | > 100 | > 100 | > 100 | > 100 | > 100 |  | > 100 | 76.2 | > 100 |  | > 100 | > 100 |  | > 100 | > 100 |
| O=S(=O)(O)c1ccc2c(N=Nc3ccc(F)cc3)c(O)c(S(=O)(=O)O)cc2c1 | > 100 | > 100 | > 100 | > 100 |  | > 100 | > 100 | > 100 | > 100 | > 100 | > 100 | > 100 | > 100 | > 100 | > 100 | > 100 | > 100 |  | > 100 |
| NC(CCC(=O)O)(CCC(=O)O)CCC(=O)O | > 100 | > 100 | > 100 | > 100 |  | > 100 | > 100 | > 100 | > 100 | > 100 |  | > 100 | > 100 | > 100 | > 100 | > 100 | > 100 | > 100 | > 100 |
| c1ccc(C2OCCO2)c(OCCOc2cc(OCCOc3ccccc3C3OCCO3)c(OCCOc3ccccc3C3OCCO3)cc2OCCOc2ccccc2C2OCCO2)c1 | > 100 | > 100 | > 100 | > 100 | > 100 | > 100 | > 100 |  | 66.5 | 47.9 | > 100 | 7.06 | > 100 | 23.9 | > 100 | 53.2 | 18.2 | 32.7 | 13.7 |
| c1ccc(C2OCC(OC3CCCCO3)CO2)cc1 (centres undefined) | > 100 | > 100 |  | > 100 | > 100 | > 100 | > 100 | > 100 | > 100 | > 100 | > 100 |  | > 100 | > 100 | > 100 | > 100 |  | > 100 | > 100 |
| O=C(Cc1ccccc1)NCCCN(CCCCN(CCCNC(=O)Cc1ccccc1)C(=O)OCc1ccccc1)C(=O)OCc1ccccc1 | > 100 | > 100 | > 29.5 | > 100 |  | > 100 | > 100 | > 100 | > 100 | > 100 | > 100 |  | > 100 | > 100 | > 100 | 6.42 | > 100 | > 100 | > 100 |
| COC(=O)C1=C(C)NC(C)=C(C(=O)OC)C1c1cccc(NO)c1 | > 100 | 26.8 | > 100 | 41.4 |  | 32.4 | > 100 | 30.9 | 30.6 | 30.8 | 28.3 |  | > 100 | 29.8 | 27.5 | 23.6 | 27.1 | 32.6 | > 100 |
| O=c1c2cn[nH]c2nc2scc(-c3ccc(Cl)cc3)n12 | > 100 | > 100 | > 100 | > 100 |  | > 100 | > 100 | > 100 | > 100 | > 100 | > 100 | > 100 | > 100 | > 100 | > 100 | > 100 | > 100 | > 100 | > 100 |
| CC(C)C1COC(c2cccc(C3=N[C@@H](C(C)C)CO3)n2)=N1 (some centres undefined) | > 100 | > 100 | > 100 | > 100 | > 100 | > 100 | > 100 |  | > 100 | > 100 | > 100 | > 100 | > 100 | > 100 |  | > 100 | > 100 | > 100 | > 100 |
| Cc1ccc2c(C)c3ccc4ccccc4c3c[n+]2c1 | > 100 | > 100 | 46.4 | > 100 | > 100 | > 100 | > 100 |  | 14.8 | 29.5 | 33 | 25.9 | 42.8 | 23 | 33.7 | > 100 | 67.4 | 33.7 | > 87.2 |
| CC12c3c4cc(Br)cc3Oc3cc(Br)cc(c31)Oc1cc(Br)cc(c12)O4 | > 100 | > 100 |  | > 100 |  | > 100 | > 100 | > 100 | 28.2 | 67.8 | > 100 | 31.3 | > 100 | > 100 | > 100 | > 100 |  | > 100 | > 100 |
| C=CCC1OC(=O)CCNC(=O)C(C)N(C)C(=O)C(C(C)C)N(C)C(=O)C(C(C)CC)NC(=O)C2CCCN2C1=O (centres undefined) (cyclo([X33]PI[NMeV][NMeA][βAla]); configuration not given here) | > 100 | > 100 | > 100 | > 100 | 8.47 | > 100 |  | > 100 | > 100 | > 100 | > 100 | > 100 | > 100 | > 100 | 71.6 | 47.5 |  | > 100 |  |
| NC(CCCCNC(=O)CNC(=O)OCc1ccccc1)C(=O)NC(CCCCNC(=O)CNC(=O)OCc1ccccc1)C(=O)NC(CCCCNC(=O)CNC(=O)OCc1ccccc1)C(=O)NC(CCCCNC(=O)CNC(=O)OCc1ccccc1)C(=O)NC(CCCCNC(=O)CNC(=O)OCc1ccccc1)C(=O)NC(CCCCNC(=O)CNC(=O)OCc1ccccc1)C(=O)O (centres undefined) | > 75 | > 75 | > 75 | > 75 | > 75 | > 75 | > 75 | > 75 | > 75 | > 75 | > 75 | > 75 | > 75 | > 75 | > 75 | > 75 |  |  |  |
| C=C=C(Sc1ccccc1)C(C)(C)OC(C)=O | 74.8 |  | 58.7 | 46.9 | 81 | 37 | 52 |  | 27.7 | 35 | 31.4 | 49.8 | > 100 | 31.6 | 32.4 | 28.6 | 28.4 | 29.8 | 51.9 |
| COc1cc(/C=C2\C(=O)N(Cc3ccccc3)C(c3ccccc3)S2(=O)=O)cc(OC)c1OC (centres undefined) | > 100 | > 100 | > 100 | > 100 | 44.9 | > 100 | > 100 | > 100 | > 100 | > 100 | > 100 |  | 65.5 | > 100 | > 100 | > 100 | > 100 |  | > 100 |
| O=C(Cc1ccccc1)NNc1nc(NNC(=O)c2ccncc2)nc(Nc2cccc(Cl)c2)n1 | > 10 |  | > 10 | > 10 | > 10 | > 10 | > 10 |  | > 10 |  | > 10 | > 10 | > 10 | > 10 | > 10 |  |  | > 10 | > 10 |
